Reference: publication PMC12668314, “Identification of a Proteolysis‐Targeting‐Chimera that Addresses Activated Checkpoint Kinase‐1 Reveals its Non‐Catalytic Functions in Tumor Cells” (Angewandte Chemie (International Ed. in English), 2025)

These molecules were tested against T1, CHK1 (checkpoint kinase-1) (Homo sapiens, UniProt O14757) (assay: in vitro binding test against human CHK1 (Eurofins Discovery), at […]).
T1 construct: gene CHEK1
T1 sequence (O14757 1-476): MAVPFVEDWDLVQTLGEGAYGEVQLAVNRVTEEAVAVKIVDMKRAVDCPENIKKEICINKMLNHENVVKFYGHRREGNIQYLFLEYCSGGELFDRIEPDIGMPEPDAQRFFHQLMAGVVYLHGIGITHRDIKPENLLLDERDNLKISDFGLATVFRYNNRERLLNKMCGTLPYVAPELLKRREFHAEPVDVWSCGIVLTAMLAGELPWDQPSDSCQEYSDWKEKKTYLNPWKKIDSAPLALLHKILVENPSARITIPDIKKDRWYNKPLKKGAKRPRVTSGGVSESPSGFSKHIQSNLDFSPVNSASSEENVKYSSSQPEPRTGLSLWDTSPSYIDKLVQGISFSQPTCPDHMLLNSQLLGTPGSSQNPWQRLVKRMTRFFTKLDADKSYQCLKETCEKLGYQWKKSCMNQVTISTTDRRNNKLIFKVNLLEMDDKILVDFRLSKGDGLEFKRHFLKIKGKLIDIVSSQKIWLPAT

Row | inhibition at 1 µM [%] | Compound
1 | 95 | CNC(=O)c1ccc(NC(=O)Nc2cnc(C)cn2)c(OC[C@@H]2CNCCO2)c1 [9a]
2 | 90 | CNC(=O)c1ccc(OC[C@@H]2CNCCO2)c(NC(=O)Nc2cnc(C)cn2)c1 [9b]
3 | 98 | Cc1cnc(NC(=O)Nc2cc(Br)c(C)cc2OC[C@@H]2CNCCO2)cn1 [rabusertib]
